pIC50: −log10 of the molar value. Where a name gives a salt, the structure may show the parent alone. Read-outs that look alike come from different tables or passages of the source.
Legend:
Assay in all cases: inhibition enzyme immunoassay: inhibition of MAb binding to surface bound R-(-)-oxaprotiline-mucin conjugate
Design in all cases: species or system mouse
MAb 1226S31.3 = target: MAb 1226S31.3
Method: (§1) The affinities of the monoclonal antibodies of the invention to R-(-)-oxaprotiline can for example be determined in an inhibition enzyme immunoassay according to Friguet et al. (J. Immunol. Methods 77, 305, 1985) wherein the monoclonal antibody to be tested is preincubated with R-(-)-oxaprotiline and, in a second step, exposed to a solid phase coated with an adsorbable conjugate of R-(-)-oxaprotiline, e.g. a protein conjugate. The fraction of the monoclonal antibody not engaged in immunocomplexes binds to the solid phase and is quantified by a secondary antibody-enzyme conjugate directed against the monoclonal antibody. The affinities are expressed as IC₅₀ (inhibition concentration) values, i.e. the concentration of free antigen causing a 50 % inhibition of antibody binding to the solid phase antigen.
(§2) This can be done, for example, in an inhibition enzyme immunoassay wherein the monoclonal antibodies of the invention are preincubated with any of the soluble compounds listed above and the incubation mixture is then tested in the enzyme immunoassay described above.
(§3) The conjugate solution (0.66 mg/ml) is diluted 1000-fold in coating buffer pH 9.8 (477 mg sodium carbonate, 897 mg sodium hydrogen carbonate, 60 mg sodium azide, 300 ml distilled water) and incubated in the wells of a microtitre plate for 2 days at 4°C. The wells are washed three times with PBS containing Tween 20 (Sigma, 0.1 %). Residual adsorption sites on the plate are saturated by incubation with 100 µl of PBS/Tween 20 for 1 h. 100 µl of a solution to be tested for the presence of antibodies to R-(-)-oxaprotiline are incubated in the wells for 1 h at room temperature. After washing three times with PBS/Tween 20, an alkaline phosphatase conjugated anti-mouse IgG antiserum (Sigma) is added in a 1000-fold dilution for 1 h at 37°C. The microtitre plate is washed five times with PBS/Tween 20, and the enzyme-conjugated bound antiserum developed with an alkaline phosphatase substrate consisting of disodium p-nitrophenylphosphate (1 mg/ml; Sigma) in diethanolamine buffer pH 9.8. The substrate gives a yellow coloration which is measured with a colorimeter (Titertek Multiskan) at a wave length of 405 nm after 60 min.
The capacity of a number of therapeutic drugs some of which are used in combination with antidepressants and of biogenic amines to inhibit the binding of the monoclonal antibodies of the invention to the antigen is determined in a two-step inhibition enzyme immunoassay to establish the selectivity of the monoclonal antibodies to the tested compounds.
(§4) The assay is carried out as described in the following.
(§5) The capacity of free R-(-)-oxaprotiline and of a number of compounds which are structurally analogous to R-(-)-oxaprotiline to inhibit the binding of the monoclonal antibodies of the invention to the antigen is determined in an inhibition enzyme immunoassay essentially as described in example 3.2. The MAbs are preincubated with free R-(-)-oxaprotiline and with various structural analogues, respectively, instead of with the test compounds of example 3.2.

MAb 1225S93.2 = settings: for pIC50: read-out: IC₅₀
Method: as §1, §2, §3, §4, §5

MAb 1219S78.6 = settings: for pIC50: read-out: IC₅₀
Method: as §1, §2, §3, §4, §5

MAb 1219S59.11 = settings: for pIC50: read-out: IC₅₀
Method: as §1, §2, §3, §4, §5

MAb 1228P63.1 = settings: for pIC50: read-out: IC₅₀
Method: as §1, §2, §3, §4, §5

[1] = Mab 1226S31.3, therapeutic drugs and biogenic amines, 1 µM-150 pM, preincubated overnight, read-out: IC50
[2] = MAb 1225S93.2, derived from IC50, compound 1 = 1
[3] = MAb 1219S59.11, derived from IC50, compound 1 = 1
[4] = MAb 1228P63.1, derived from IC50, compound 1 = 1

| SMILES | pIC50 (MAb 1226S31.3; [1]) | rel. affinity (MAb 1226S31.3; MAb 1226S31.3, derived from IC50, compound 1 = 1) | pIC50 (MAb 1226S31.3; MAb 1226S31.3, read-out: IC₅₀) | rel. affinity (MAb 1225S93.2; [2]) | pIC50 (MAb 1225S93.2; MAb 1225S93.2) | IC50 relative to reference compound (fold) (MAb 1219S78.6; MAb 1219S78.6, derived from IC50, compound 1 = 1) | pIC50 (MAb 1219S78.6; MAb 1219S78.6) | IC50 relative to reference compound (higher = weaker binding) (MAb 1219S59.11; [3]) | pIC50 (MAb 1219S59.11; MAb 1219S59.11) | rel. affinity (MAb 1228P63.1; [4]) | pIC50 (MAb 1228P63.1; MAb 1228P63.1) | rel. affinity (MAb 1226S31.3) | rel. affinity (MAb 1225S93.2) | IC50 relative to reference compound (fold) (MAb 1219S78.6) | rel. affinity (MAb 1219S59.11) | rel. affinity (MAb 1228P63.1) | rel. affinity (MAb 1219S59.11; [3]) |
| --- | --- | --- | --- | --- | --- | --- | --- | --- | --- | --- | --- | --- | --- | --- | --- | --- | --- |
| NCC(O)c1ccc(O)c(O)c1 [L-Norepinephrin, 4-[2-amino-1-hydroxy-ethyl]-1,2-benzenediol] | < 6.00 | – | – | – | – | – | – | – | – | – | – | – | – | – | – | – | – |
| CNC[C@H](O)CC12CCC(c3ccccc31)c1ccccc12 [compound 1] | 8.17 | 1 | 8.17 | 1 | 9.43 | 1 | 9.52 | 1 | 9.54 | 1 | 9.12 | – | – | – | – | – | – |
| NCCc1c[nH]cn1 [Histamine, 1H-imidazole-4-ethane-amine] | < 6.00 | – | – | – | – | – | – | – | – | – | – | – | – | – | – | – | – |
| CNCC(O)CC12CCC(c3ccccc31)c1ccccc12 (racemic) [compound 3, 1-(2-hydroxy-3-methyl-amino-propyl)-dibenzo-[b,e]bicyclo[2.2.2]-octadiene-hydro-chloride] | – | – | 8.51 | – | 9.32 | – | 9.29 | – | 9.12 | – | 8.77 | 0.5 | 1.3 | 1.7 | 2.6 | 2.3 | – |
| CNC[C@@H](CC12CCC(c3ccccc31)c1ccccc12)O[C@@H]1O[C@H](C(=O)O)[C@@H](O)[C@H](O)[C@H]1O [compound 4, R-(-)-1-(2-glucuronyl-3-methylamino-propyl)-dibenzo[b,e]bicyclo-[2.2.2]octadiene] | – | – | 7.56 | – | 7.04 | – | 7.15 | – | 7.15 | – | 7.29 | 4.1 | 245.9 | 229.5 | 244.8 | 68.0 | – |
| CN(C)CC(O)CC12CCC(c3ccccc31)c1ccc(C(F)(F)F)cc12 (centres unmarked) [compound 17] | – | – | < 6.00 | – | 6.63 | – | < 6.00 | – | < 6.00 | – | < 5.90 | >149 | 628.4 | >3279 | >3448 | >1667 | – |
| CNCC(O)CC12CCC(c3ccccc31)c1ccc(C(F)(F)F)cc12 (centres unmarked) [compound 16] | – | – | < 6.00 | – | 7.03 | – | < 6.00 | – | < 6.00 | – | < 5.90 | >149 | 251.4 | >3279 | >3448 | >1667 | – |
| CNCC(CC12CCC(c3ccccc31)c1ccccc12)OC(C)=O (centres unmarked) [compound 11, 1-(2-acetoxy-3-methyl-amino-propyl)-dibenzo[b,e]bicyclo-[2.2.2]octadiene-hydrochloride-semi-hydrate] | – | – | 8.45 | – | 9.15 | – | 9.00 | – | 8.89 | – | 8.47 | 0.5 | 1.9 | 3.3 | 4.5 | 4.5 | – |
| NCC(O)CC12CCC(c3ccccc31)c1ccccc12 (centres unmarked) [compound 7, 1-(3-amino-2-hydroxy-propyl)-dibenzo[b,e]-bicyclo[2.2.2]-octadiene-hydro-chloride] | – | – | 8.62 | – | 9.12 | – | 7.12 | – | 6.97 | – | 8.78 | 0.4 | 2.0 | 249.2 | 368.9 | 2.2 | – |
| CNCCCC12CCC(c3ccccc31)c1ccccc12 [compound 6, 1-(3-methylamino-propyl)-dibenzo[b,e]-bicyclo[2.2.2]-octadiene-hydro-chloride] | – | – | – | 1.2 | – | – | – | – | – | 1.4 | – | – | – | – | – | – | 8.8 |
| CNCC(O)c1ccc(O)c(O)c1 (centres unmarked) [Epinephrin, 4-[1-hydroxy-2-(methyl-amino)-ethyl]-1,2-benzene-diol] | < 6.00 | – | – | – | – | – | – | – | – | – | – | – | – | – | – | – | – |
| CN1COC(CC23CCC(c4ccccc42)c2ccccc23)C1 (centres unmarked) [compound 13, 3-methyl-5-(dibenzo-[b,e]bicyclo[2.2.2]-octadienyl-1-methyl)-oxazolidine-methane-sulfonate] | – | – | 8.35 | – | 9.24 | – | 9.32 | – | 9.26 | – | 8.92 | 0.7 | 1.6 | 1.6 | 1.9 | 1.6 | – |
| CN(C)CC(O)CC12CCC(c3ccccc31)c1ccc(Cl)cc12 (centres unmarked) [compound 15, 1-(2-hydroxy-3-dimethylamino-propyl]-10-chlorodibenzo[b,e]-bicyclo[2.2.2]-octadiene-cyclamate] | – | – | 7.30 | – | 7.56 | – | 7.28 | – | 7.44 | – | 7.90 | 7.5 | 74.3 | 170.5 | 124.1 | 16.7 | – |
| c1ccc2c(c1)C1CCC2(CC2CNCCO2)c2ccccc21 (centres unmarked) [compound 12, 2-(dibenzo[b,e]bicyclo-[2.2.2]octadienyl-1-methyl)-morpholine-hydrochloride] | – | – | 8.68 | – | 8.63 | – | ~7.82 | – | 7.30 | – | 8.63 | 0.3 | 6.4 | ∼49.2 | 174.1 | 3.1 | – |

From patent EP0392976A1, “Monoclonal antibodies to tetracyclic compounds, processes for their production, and applications” (CIBA-GEIGY AG, priority 1989, dated 1990)
